In US20240016788A1, “PHARMACEUTICAL COMPOSITION FOR PREVENTING OR TREATING DIABETIC AND POSTMENOPAUSAL OSTEOPOROSIS, CONTAINING ADIPORON” (PnP Biopharm Co., Ltd., priority 2020, published 2024):

Key:
Type in all cases: in vivo
non-diabetic db/m mice = assay: Body weight, blood biochemistry and 24-hour urine oxidative stress in non-diabetic db/m mice; details: adiporon 30 mg/kg/day in diet for 4 weeks, mean ± SD
Method: A leptin receptor-defective type 2 diabetic animal model (db/db mice) and a normal control group (db/m mice) were used, and the experiment was performed by dividing into 4 groups as follows: non-diabetic control group (dm cont, n=8), non-diabetic adiporon treatment group (dm+AdipoR, n=8), diabetic control group (db cont, n=8) and diabetic adiporon treatment group (db+AdipoR, n=8). The control group was fed a normal diet, and the adiporon treatment group was fed a diet comprising adiporon (30 mg/kg/day) for 4 weeks from 16 weeks of age. During the experiment, body weight was measured every week, fasting blood glucose was measured using an Accu-Chek meter (Roche Diagnostics, St. Louis, MO) every 2 weeks after blood was collected from the tail vein, and glycated hemoglobin (HbA1c) was measured every 4 weeks using a […] automatic analyzer (Bayer healthcare LLC, IN) after blood was collected from the tail vein. The temperature and humidity of the breeding room were maintained at 20˜25° C. and 50˜60%, respectively, and the lights were turned on and off at 12-hour intervals. In both experiments, blood collected from each mouse was allowed to stand at room temperature for 30 minutes, and then centrifuged at 3000 rpm for 15 minutes to obtain serum. Blood levels of tartrate-resistant acid phosphatase (TRAP/ACP5) and osterocalcin concentration were measured by ELISA. In addition, 8-hydroxy-deoxyguanosine, a DNA damage marker caused by oxidative stress, and isoprostane, a marker of oxidative stress caused by lipid peroxidation caused by free fatty acids, and deoxypyridinoline (DPP), which indicates the function of osteoclasts, were measured in 24-hour urine concentrations by ELISA method.

[1] = system: type 2 diabetic db/db mice; assay: Micro-CT of ilium (femur) and lumbar vertebra 5, db/db mice; details: adiporon 30 mg/kg/day, 4 weeks
Method: A leptin receptor-defective type 2 diabetic animal model (db/db mice) and a normal control group (db/m mice) were used, and the experiment was performed by dividing into 4 groups as follows: non-diabetic control group (dm cont, n=8), non-diabetic adiporon treatment group (dm+AdipoR, n=8), diabetic control group (db cont, n=8) and diabetic adiporon treatment group (db+AdipoR, n=8). The control group was fed a normal diet, and the adiporon treatment group was fed a diet comprising adiporon (30 mg/kg/day) for 4 weeks from 16 weeks of age. During the experiment, body weight was measured every week, fasting blood glucose was measured using an Accu-Chek meter (Roche Diagnostics, St. Louis, MO) every 2 weeks after blood was collected from the tail vein, and glycated hemoglobin (HbA1c) was measured every 4 weeks using a […] automatic analyzer (Bayer healthcare LLC, IN) after blood was collected from the tail vein. The temperature and humidity of the breeding room were maintained at 20˜25° C. and 50˜60%, respectively, and the lights were turned on and off at 12-hour intervals. The imaging was performed with micro-CT (Skyscan 1172, Belgium), the tube voltage was 60 kV, the tube current was 167 uA, 0.5 mm aluminum filtration was used, and the pixel size was 5.9 μm. For the shooting angle, a 2-dimensional image was reconstructed with Nrecon Reconstruction (Skyscan, Belgium). For 3D image analysis, CTAn (Skyscan, Belgium) was used, images were obtained by rotating 360°, and exposure time was 440 ms. A total of 7 types of indicators were used in this invention. BMD (bone mineral density, bone density) was measured based on phantoms of 0.25 g/cm^3 and 0.75 g/cm^3. BV/TV (Bone volume/Total volume, percent bone volume, %) is the ratio of voxels representing the solid region out of the total voxels present in the binarized and surfaced volume of interest, and it means the ratio occupied by bone trabeculae within the volume of interest, and i.s (Interception surfaces, mm2) means the generation of new bone. […] BS/BV (Bone surface/Bone volume, bone specific surface, mm^−1) is the ratio of the voxel surface area to the number of voxels in the binarized solid region within the volume of interest and it means the ratio of the surface area of the trabecular bone to the volume of the trabecular bone. The lower the value, the higher the bone strength. Tb.Th (trabecular thickness, mm) is obtained by averaging the diameters of these spheres, after placing a sphere comprising the corresponding voxel for each voxel representing the solid region within the volume of interest so that the size of the sphere is the largest that includes only the solid region and it means the average thickness of the trabecular bone. […] In the same way, using Tb.Sp (trabecular separation, mm), the average length between trabecular lines and Tb.N (trabecular number, mm^−1) were used to obtain the average number of trabecular lines.

[2] = system: ovariectomized C57BL/6 mice; assay: Western blot of bone tissue, ovariectomized mice; details: for Decreased expression of adiponectin-receptor 1/2 (western blot): 6 weeks
Method: 7 weeks after ovariectomization or sham surgery of 7-week-old C57BL/6 mice, normal feed group (adiporon non-administered group; control group) administration group, 2.5 mg/kg day or 25 mg/kg day, respectively Feed comprising adiporon was consumed for 6 weeks from 14 weeks of age. Body weight was measured every week during the experiment period, and the experiment was conducted after 6 weeks of administration.
Protein was extracted using Pro-Prep Protein Extraction Solution (Intron Biotechnology, Gyeonggi-Do, Korea), and SDS-PAGE (sodium dodecyl sulfate-polyacrylamide gel electrophoresis) was performed. The separated protein was transferred to a nitrocellulose membrane (Amersham Co., Buckinghamshire, England) and treated with Tris buffered saline (in TBS-T: 0.1% Tween-20 in Tris buffer saline, pH 7.5) containing 3% skim milk. After blocking for an hour, the blots were reacted in adiponectin receptor 1/2, total AMPK, phospho-Thr172AMPK, PGC-1α, Nrf-2, SOD1/2, NQO1, HO-1, NOX4, NF-κB and β-actin primary antibody solution, washing, reacting with a secondary antibody against each primary antibody, and then photosensitizing through ECL (Pierce, Rockford IL) to confirm the band. The expression level of each protein was normalized according to β-actin.

[3] = ilium (femur), adiporon 2.5 or 25 mg/kg day, dose not distinguished
[4] = vertebrae (lumbar vertebrae 5), adiporon 2.5 or 25 mg/kg day, dose not distinguished

Cl.O=C(COc1ccc(C(=O)c2ccccc2)cc1)NC1CCN(Cc2ccccc2)CC1 [adiporon]
Blood glucose (non-diabetic db/m mice): 136 ± 8 mg/dL | HbA1c (non-diabetic db/m mice): 3.8 ± 0.2% | Serum NEFA (non-diabetic db/m mice): 0.67 ± 0.23 mEq/I | Serum TC (non-diabetic db/m mice): 2.5 ± 0.4 mmol/L | Serum TG (non-diabetic db/m mice): 1.4 ± 0.2 mmol/L | Serum adiponectin (non-diabetic db/m mice): 11214 ± 1214 ng/mL | Urinary 8-OHDG (non-diabetic db/m mice): 36.5 ± 14.5 ng/24 h | Urinary isoprostane (non-diabetic db/m mice): 4.3 ± 2.2 ng/24 h | Bone mineral density index (micro-CT) ([1]; ilium): significantly increased and improved | Bone surface index (micro-CT) ([1]; ilium): significantly increased and improved | Bone volume index (micro-CT) ([1]; ilium): significantly increased and improved | Trabecular number index (micro-CT) ([1]; ilium): significantly increased and improved | Trabecular thickness index (micro-CT) ([1]; ilium): significantly increased and improved | Trabecular thickness (micro-CT) ([1]; vertebrae (lumbar vertebrae 5)): increased and improved | Decreased expression of adiponectin-receptor 1/2 (western blot) ([2]; ilium (femur), adiporon 2.5 mg/kg day): restored | Decreased expression of adiponectin-receptor 1/2 (western blot) ([2]; ilium (femur), adiporon 25 mg/kg day): restored | Activation of adiponectin-receptor 1-AMPK [2, 3]: increased | Expression of PGC-1α [2, 3]: increased | Expression of adiponectin-receptor 2-PPARα [2, 3]: increased | Decreased expression of adiponectin-receptor 1/2 (western blot) ([2]; vertebrae (lumbar vertebrae 5), adiporon 2.5 mg/kg day): restored | Decreased expression of adiponectin-receptor 1/2 (western blot) ([2]; vertebrae (lumbar vertebrae 5), adiporon 25 mg/kg day): restored | Activation of adiponectin-receptor 1-AMPK [2, 4]: increased | Expression of PGC1α [2, 4]: increased | Expression of adiponectin-receptor 2-PPARα [2, 4]: increased
